Assays:
[1] = tested on: E. coli SOS (DNA damage repair) response; assay: SOS assay (β-galactosidase activity) in NTR over-expression library; type: cell-based, Escherichia coli; settings: 4 h challenge with 8 μM compound 67
Protocol: FIG. 2 illustrates the metabolism of compound 67 by members of the 58-membered NTR over-expression library as measured by (A) Growth Inhibition assay and (B) SOS assay. (A) Growth Inhibition assay. Turbidity (OD600) of NTR over-expressing cell cultures was recorded directly before and after 4 h incubation with 400 μM compound 67. Percentage Growth Inhibition represents the decrease in OD600 of challenged cells relative to unchallenged control cells for each strain post-incubation (i.e. 100−[100×OD600 of challenged cells/OD600 of unchallenged cells]). Data are the average of 2 independent assays and the error bars indicate ±1 standard deviation. Labelled bars indicate the NfsA and NfsB family members within the NTR library. (B) SOS assay. […] The data presented is the SOS response, measured by β-galactosidase activity (in Miller units), of NTR over-expressing E. coli SOS-R2 after 4 h challenge with 8 μM compound 67. Full details of assay protocol and calculations are as described in G A Prosser, J N Copp, S P Syddall, E M Williams, J B Smaill, W R Wilson, A V Patterson and D F Ackerley. 2010. Discovery and evaluation of Escherichia coli nitroreductases that activate the anti-cancer prodrug CB1954. Biochemical Pharmacology 79: 678-687. Data are the average of 2 independent assays and the error bars indicate ±1 standard deviation. […]

NfsB (E.s) = assay: Initial rate of metabolism by purified recombinant bacterial nitroreductase (NADPH consumption, UV/Vis); type: biochemical, Enterobacter (Chronobacter) sakazakii; settings: compound 500 μM, NADPH 200 μM, 10 mM Tris-Cl pH 7.0; μmol NADPH consumed per mg enzyme per minute
Protocol: The relative initial rates of reductive metabolism of the nitro moiety of test compounds by bacterial nitroreductase's can be measured experimentally by incubating the test compound at near-saturating concentration (determined empirically) with the purified recombinant bacterial nitroreductase enzymes in the presence of NADPH co-factor. UV/Vis spectroscopy is used to measure consumption of the co-factor, indicating metabolism of the test compound by the nitroreductase.
Compounds 67, 93 and 97 (500 μM) were added to NADPH (200 μM) in 10 mM Tris-Cl pH 7.0. Reactions were initiated by enzyme addition (between 5 and 20 μg per reaction). Rates represent μmol of NADPH consumed per mg enzyme added per minute.

SMILES: Cc1ncc([N+](=O)[O-])n1CC(=O)NCC(F)(F)C(F)(F)F [Compound 67, 2-(2-methyl-5-nitro-1H-imidazol-1-yl)-N-(2,2,3,3,3-pentafluoropropyl)acetamide]
- SOS response upon activation [1]: demonstrates an ability to evoke the E. coli SOS (DNA damage repair) response upon activation
- Rate of metabolism by NfsB (E.s) (NfsB (E.s)): 2.4 µmol/min/mg

From patent US20150010474A1, “Compounds And Methods For Selective Imaging And/Or Ablation” (Auckland Uniservices Limited, priority 2011, published 2015)
